# Assay results taken from patent US4752614A, “Pharmaceutical compositions of tellerium and selenium compounds for the induction of in vivo and in vitro production of cytokines” (Bar-Ilan University, priority 1987, dated 1988).
# Values joined by “and” are separate entries in the source; they are usually repeats but may differ in a detail not shown here. Equal entries are not always repeated. Where two headings read alike, the source gives them in different places.
# Key:
# IL-2 [1] = assay: IL-2 activity of supernatants of human mononuclear cells on CTLD cells (Example 8); format: cell-based; conditions: 72 hours
# [2] = Dissolution in aqueous vehicles; format: physicochemical; conditions: organic solvent or mixture, read-out: solubility (will dissolve)
# From the text: The invention also contemplates a method for dissolving the compounds of the invention in an aqueous vehicle. This method comprises the use of ultrasound or mechanical agitation for an extended period of time which will dissolve the compound. Generally ultrasound is produced by a transformer which transforms 50/60 hertz, line voltage AC into high frequency electrical energy which is coupled to a transducer. By using piezoelectric ceramics, electrical frequency is converted into mechanical vibration. Typical amplitudes of 0.0003 for 40 k Hz equipment and 0.00007 to 0.001 for 20 k Hz equipment are useful. The transducer may be provided with a booster that is connected to a horn that has means for conducting the ultrasound to a container that holds the liquid for dissolving the compounds of the invention. Useful devices include small scale ultrasonic cleaners such as the Bronson instrument. […] The time required for this is usually 3 hours to 24 hours. High speed mechanical shakers such as a Tutenhauer shaker or waring blenders may be used for this purpose. The use of an electically operated agitator will cause the compounds to form a solution or dispersion after about 3 to 4 hours of agitation.
# Using stirring 5.0 mg of the compound of Example 1 is dissolved under sterile conditions in 20 ml of glycerol. Thereafter 80 ml of PBS is added to form a solution containing 10 μg/0.2 ml.
# It has been determined that the compound of Example 1 will dissolve as follows: […]
# IL-2 receptors = assay: Induction of IL-2 receptors of human mononuclear cells, proliferation with recombinant IL-2 (Example 18); format: cell-based
# Method: Human MNC were brought to a concentration of 10^6 cells/ml. RPMI+10% FCS. Aliquots of 0.2 ml. were placed in duplicate wells of microdishes and plates were incubated at 37° C. for 24 hrs. […] Plates were further incubated for 48 hrs. and labelled with 3H thymidine 24 hrs. before harvesting.
# The proliferation was measured by ^3 HT uptake as described by Gillis et al, J. Immunol. […] The results are expressed in counts per minute.
# human mononuclear cells = assay: Proliferation of human mononuclear cells (Example 19); format: cell-based
# Method: Human mononuclear cells were obtained by layering heparinized blood over a Ficoll/Hypaque gradient. The mononuclear cells were resuspended in enriched RPMI, rinsed three times and brought to a concentrations of 5×10^5 cells/ml encriched RPMI. […] Aliquots of 0.2 ml of each sample were placed in wells of microplates (triplicates). Microplates were incubated for 72 hours at 37° C. after which they were labelled with H^3 methyl-thymidine 1 μCi/well for an additional 24 hours. Cells were then harvested with a cell harvester.
# IL-2 [3] = assay: IL-2 production by human mononuclear cells of normal donors and SLE patients (Example 20); format: cell-based
# Method: Using the procedure of Example 4, human mononuclear cells were tested for their ability to produce IL-2 after induction with PHA or in unstimulated cells from normal donors and from patients suffering from systemic lupus erthyrematous. The IL-2 content was tested according to the procedure of Example 3 using the CTLD IL-2 dependent cell line.
# receptor sites for IL-2 = assay: Detection of IL-2 receptors with fluoresceinated antibody (Example 21); format: cell-based, human; conditions: 1 μg/ml, 24 hours
# Method: This example provides an assay to detect the presence of receptor sites for IL-2. […] The cells were washed twice with PDS and then incubated with a specific fluoresceinated antibody against IL-2 receptors as described in Uchiyama et al, J. Immunol.
smiles,measurement,setting,value
Cl[TeH]1(Cl)(Cl)OCCO1 [Example 1],IL-2 activity,IL-2 [1]; 1 ng,"11,000 Counts per minute"
same,IL-2 activity,IL-2 [1]; 10 ng,"1,500 Counts per minute"
same,IL-2 activity,IL-2 [1]; 1 μg,250 Counts per minute
same,IL-2 activity,IL-2 [1]; 100 μg,280 Counts per minute
same,solubility,[2]; 10% glycerol/90% pbs,1000 µg/mL
same,solubility,[2]; 20% glycerol/80% pbs,1300 µg/mL
same,solubility,[2]; 40% glycerol/60% pbs,6000 µg/mL
same,proliferation (3HT uptake),"IL-2 receptors; Test A, 1 μg/ml",28625 counts per minute and 27593 counts per minute
same,proliferation (3HT uptake),"IL-2 receptors; Test A, 1 × 10^-3 μg/ml",3652 counts per minute and 5055 counts per minute
same,proliferation (3HT uptake),"IL-2 receptors; Test A, 1 × 10^-4 μg/ml",3558 counts per minute and 4047 counts per minute
same,proliferation (3HT uptake),"IL-2 receptors; Test A, 1 × 10^-5 μg/ml",2474 counts per minute and 4063 counts per minute
same,proliferation (3HT uptake),"IL-2 receptors; Test A, 5 × 10^-1 μg/ml",120755 counts per minute and 105943 counts per minute
same,proliferation (3HT uptake),"IL-2 receptors; Test B, 1 μg/ml",23488 counts per minute
same,proliferation (3HT uptake),"IL-2 receptors; Test B, 1 × 10^-2 μg/ml",6057 counts per minute
same,proliferation (3HT uptake),"IL-2 receptors; Test B, 1 × 10^-3 μg/ml",5865 counts per minute
same,proliferation (3HT uptake),"IL-2 receptors; Test B, 1 × 10^-4 μg/ml",4960 counts per minute
same,proliferation (3HT uptake),"IL-2 receptors; Test B, 1 × 10^-5 μg/ml",7155 counts per minute
same,proliferation (3HT uptake),"IL-2 receptors; Test B, 5 × 10^-1 μg/ml",66910 counts per minute
same,proliferation (3HT uptake),"IL-2 receptors; Test B, 5 × 10^-2 μg/ml",5390 counts per minute
same,proliferation (3HT uptake),"IL-2 receptors; Test B, 7 × 10^-1 μg/ml",17620 counts per minute
same,proliferation of human mononuclear cells,"human mononuclear cells; first part of table, 1 × 10^-3 μg/ml",2553 and 2180
same,proliferation of human mononuclear cells,"human mononuclear cells; first part of table, 1 × 10^-4 μg/ml",3838 and 2387
same,proliferation of human mononuclear cells,"human mononuclear cells; first part of table, 1 × 10^-5 μg/ml",3218 and 2442
same,proliferation of human mononuclear cells,"human mononuclear cells; first part of table, 5 × 10^-1 μg/ml",18515 and 33700
same,proliferation of human mononuclear cells,"human mononuclear cells; second part of table, 1 μg/ml",6000 and 5600
same,proliferation of human mononuclear cells,"human mononuclear cells; second part of table, 5 μg/ml",5008 and 5182
same,proliferation of human mononuclear cells,"human mononuclear cells; second part of table, 1 × 10^-1 μg/ml",7037 and 10382
same,proliferation of human mononuclear cells,"human mononuclear cells; second part of table, 1 × 10^-2 μg/ml",6898 and 5712
same,proliferation of human mononuclear cells,"human mononuclear cells; second part of table, 1 × 10^-3 μg/ml",5800 and 6000
same,proliferation of human mononuclear cells,"human mononuclear cells; second part of table, 1 × 10^-4 μg/ml",5513 and 6212
same,proliferation of human mononuclear cells,"human mononuclear cells; second part of table, 5 × 10^-1 μg/ml",20488 and 13600
same,proliferation of human mononuclear cells,"human mononuclear cells; second part of table, 5 × 10^-2 μg/ml",5520 and 5765
same,IL-2 production,"IL-2 [3]; SLE, PHA +, 5 μg 0.2 ml PBS",6.3 CPM × 10^-3 and 8.2 CPM × 10^-3 and 4.1 CPM × 10^-3
same,IL-2 production,"IL-2 [3]; SLE, PHA +, 1:50 PBS",24.2 CPM × 10^-3 and 28.1 CPM × 10^-3 and 23.8 CPM × 10^-3
same,IL-2 production,"IL-2 [3]; SLE, PHA +, 1:100 PBS",19.7 CPM × 10^-3 and 24.0 CPM × 10^-3 and 20.2 CPM × 10^-3
same,IL-2 production,"IL-2 [3]; SLE, PHA +, 1:200 PBS",15.4 CPM × 10^-3 and 18.6 CPM × 10^-3 and 16.8 CPM × 10^-3
same,IL-2 production,"IL-2 [3]; SLE, PHA -, 5 μg 0.2 ml PBS",2.0 CPM × 10^-3 and 2.4 CPM × 10^-3
same,IL-2 production,"IL-2 [3]; SLE, PHA -, 1:100 PBS",32.1 CPM × 10^-3 and 35.1 CPM × 10^-3 and 18.1 CPM × 10^-3
same,IL-2 production,"IL-2 [3]; normal, PHA +, 5 μg 0.2 ml PBS",36.4 CPM × 10^-3 and 30.4 CPM × 10^-3 and 38.9 CPM × 10^-3
same,IL-2 production,"IL-2 [3]; normal, PHA +, 1:50 PBS",48.2 CPM × 10^-3 and 38.9 CPM × 10^-3 and 53.5 CPM × 10^-3
same,IL-2 production,"IL-2 [3]; normal, PHA +, 1:100 PBS",46.2 CPM × 10^-3 and 54.2 CPM × 10^-3 and 44.8 CPM × 10^-3
same,IL-2 production,"IL-2 [3]; normal, PHA +, 1:200 PBS",38.6 CPM × 10^-3 and 49.8 CPM × 10^-3 and 38.3 CPM × 10^-3
same,IL-2 production,"IL-2 [3]; normal, PHA -, 5 μg 0.2 ml PBS",2.3 CPM × 10^-3 and 2.1 CPM × 10^-3
same,IL-2 production,"IL-2 [3]; normal, PHA -, 1:50 PBS",43.6 CPM × 10^-3 and 52.2 CPM × 10^-3 and 50.8 CPM × 10^-3
same,IL-2 production,"IL-2 [3]; normal, PHA -, 1:100 PBS",38.4 CPM × 10^-3 and 50.3 CPM × 10^-3 and 46.1 CPM × 10^-3
same,IL-2 production,"IL-2 [3]; normal, PHA -, 1:200 PBS",30.1 CPM × 10^-3 and 47.1 CPM × 10^-3 and 31.3 CPM × 10^-3
same,cells positive for IL-2 receptors,receptor sites for IL-2,20%
